Data from ChEMBL document CHEMBL1201862, “PubChem BioAssay data set” (2004).
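A five-concentration, 48-hour dose response in 96-well plates underlies each endpoint, interpolated linearly between surrounding concentrations. Here, GI50 denotes the concentration required for 50% inhibition of growth.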 Calls of active or inactive are those of the source. Cut-off read from the data, not from the text of the source: active = GI50 up to about 1.1 µM and inactive = higher.

Legend:
Assay in all cases: NCI anticancer screen, dose series, 48 h
[1] = test system: CAKI-1
[2] = test system: SK-OV-3
[3] = test system: Malme-3M
[4] = test system: SF-295
[5] = test system: 786-0
[6] = test system: COLO 205
[7] = test system: M14
[8] = test system: SW-620
[9] = test system: SR
[10] = test system: DU-145
[11] = test system: HCC 2998
[12] = test system: TK-10
[13] = test system: SK-MEL-5
[14] = test system: K562
[15] = test system: RPMI-8226
[16] = test system: A549
[17] = test system: T47D
[18] = test system: SNB-75
[19] = test system: MCF7
[20] = test system: RXF 393
[21] = test system: PC-3
[22] = test system: UACC-62
[23] = test system: MDA-N
[24] = test system: LOX IMVI
[25] = test system: MOLT-4
[26] = test system: HL-60
[27] = test system: HT-29
[28] = test system: KM12
[29] = test system: OVCAR-8
[30] = test system: NCI-H23
[31] = test system: SN12C
[32] = test system: HCT-15
[33] = test system: IGROV-1
[34] = test system: SF-268
[35] = test system: UACC-257
[36] = test system: HOP-62
[37] = test system: SK-MEL-28
[38] = test system: CCRF-CEM
[39] = test system: EKVX
[40] = test system: MDA-MB-231
[41] = test system: NCI/ADR-RES
[42] = test system: HCT-116
[43] = test system: MDA-MB-435
[44] = test system: NCI-H226
[45] = test system: ACHN
[46] = test system: OVCAR-3
[47] = test system: SK-MEL-2
[48] = test system: OVCAR-4
[49] = test system: OVCAR-5
[50] = test system: U-251
[51] = test system: SNB-19
[52] = test system: UO-31
[53] = test system: NCI-H522
[54] = test system: SF-539

With `CCCCCCCCCC[C@@H](OC(C)=O)[C@@H]1CC[C@@H]([C@@H]2CC[C@@H]([C@@H](O)CC#C/C=C/CCCCCCC[C@@]3(Sc4ccccc4)C[C@H](C)OC3=O)O2)O1` the GI50 [1] was > 10 µM (inactive), the GI50 [2] was > 10 µM (inactive) and the GI50 [3] was > 10 µM (inactive). The GI50 [4] was > 10 µM (inactive), the GI50 [5] was > 10 µM (inactive) and the GI50 [6] was > 10 µM (inactive). For the same compound, the GI50 [7] was > 10 µM (inactive), the GI50 [8] was > 10 µM (inactive) and the GI50 [9] was > 10 µM (inactive). The GI50 [10] was > 10 µM (inactive), the GI50 [11] was > 10 µM (inactive) and the GI50 [12] was > 10 µM (inactive). The GI50 [13] was 4.57 µM (inactive), the GI50 [14] was 9.89 µM (inactive) and the GI50 [15] was > 10 µM (inactive). The GI50 [16] was > 10 µM (inactive), the GI50 [17] was 7.46 µM (inactive) and the GI50 [18] was > 10 µM (inactive). The GI50 [19] was > 10 µM (inactive), the GI50 [20] was > 10 µM (inactive) and the GI50 [21] was > 10 µM (inactive). The GI50 [22] was > 10 µM (inactive), the GI50 [23] was > 10 µM (inactive) and the GI50 [24] was > 10 µM (inactive). The GI50 [25] was > 10 µM (inactive), the GI50 [26] was > 10 µM (inactive) and the GI50 [27] was > 10 µM (inactive). The GI50 [28] was > 10 µM (inactive), the GI50 [29] was > 10 µM (inactive) and the GI50 [30] was 0.968 µM (active). For the same compound, the GI50 [31] was > 10 µM (inactive), the GI50 [32] was > 10 µM and the GI50 [33] was > 10 µM (inactive). For the same compound, the GI50 [34] was > 10 µM (inactive), the GI50 [35] was 3.08 µM (inactive) and the GI50 [36] was > 10 µM (inactive). The GI50 [37] was > 10 µM (inactive), the GI50 [38] was > 10 µM (inactive) and the GI50 [39] was > 10 µM (inactive). For the same compound, the GI50 [40] was > 10 µM (inactive).
For `Cc1nnc(Nc2ccccc2)o1`, the GI50 [41] was > 100 µM (inactive), the GI50 [1] was > 100 µM (inactive) and the GI50 [2] was > 100 µM (inactive). For the same compound, the GI50 [3] was > 100 µM (inactive), the GI50 [4] was > 100 µM (inactive) and the GI50 [42] was > 100 µM (inactive). For the same compound, the GI50 [5] was > 100 µM (inactive), the GI50 [6] was > 100 µM (inactive) and the GI50 [43] was > 100 µM (inactive). For the same compound, the GI50 [44] was > 100 µM (inactive), the GI50 [7] was > 100 µM (inactive) and the GI50 [45] was > 100 µM (inactive). For the same compound, the GI50 [8] was > 100 µM (inactive), the GI50 [9] was > 100 µM (inactive) and the GI50 [10] was > 100 µM (inactive). The GI50 [46] was > 100 µM (inactive), the GI50 [12] was > 100 µM (inactive) and the GI50 [13] was > 100 µM (inactive). For the same compound, the GI50 [47] was 70.8 µM (inactive), the GI50 [48] was > 100 µM (inactive) and the GI50 [49] was > 100 µM (inactive). For the same compound, the GI50 [14] was > 100 µM (inactive), the GI50 [15] was > 100 µM (inactive) and the GI50 [16] was > 100 µM (inactive). The GI50 [17] was > 100 µM (inactive), the GI50 [18] was > 100 µM (inactive) and the GI50 [19] was > 100 µM (inactive). For the same compound, the GI50 [20] was > 100 µM (inactive), the GI50 [21] was > 100 µM (inactive) and the GI50 [22] was > 100 µM (inactive). For the same compound, the GI50 [23] was > 100 µM (inactive), the GI50 [24] was > 100 µM (inactive) and the GI50 [50] was > 100 µM (inactive). The GI50 [25] was > 100 µM (inactive), the GI50 [26] was > 100 µM (inactive) and the GI50 [27] was > 100 µM (inactive). For the same compound, the GI50 [51] was > 100 µM (inactive), the GI50 [28] was > 100 µM (inactive) and the GI50 [29] was > 100 µM (inactive). The GI50 [30] was > 100 µM (inactive), the GI50 [31] was > 100 µM (inactive) and the GI50 [32] was > 100 µM. For the same compound, the GI50 [34] was > 100 µM (inactive), the GI50 [35] was > 100 µM (inactive) and the GI50 [37] was > 100 µM (inactive). For the same compound, the GI50 [52] was > 100 µM (inactive), the GI50 [38] was > 100 µM (inactive) and the GI50 [53] was > 100 µM (inactive). For the same compound, the GI50 [54] was > 100 µM (inactive) and the GI50 [39] was > 100 µM (inactive).
